The record followed here is patent US20260015350A1, “AZAQUINAZOLINE PAN-KRAS INHIBITORS” (Mirati Therapeutics, Inc., priority 2022, published 2026).

The subject of assay [1] is KRas-mediated phosphorylation of ERK in AsPC-1 cells. Kind of assay: Inhibition of KRas-mediated phosphorylation of ERK (Cisbio HTRF pERK), AsPC-1 cells. In kind it is cell-based. Conditions: Homo sapiens, ASPC1, AsPC-1 cells; HTRF pERK. The essentials: (§1)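 Signal read by HTRF (d2/Cryptate antibody pair, 2 hr room-temperature incubation on lysate). Cells: 6,000 per well, 3 hr compound exposure. Titration: 10 uM highest, 3-fold, 10 points.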

Assay [2] relates to KRas-mediated phosphorylation of ERK in HCT116 cells. The assay is described as follows: Inhibition of KRas-mediated phosphorylation of ERK (Cisbio HTRF pERK), HCT116 cells. Conditions: Homo sapiens; for inhibition at 0.1 µM: HCT-116, 3 h, single point, 100 nM compound, 3 hrs; for IC50: HCT-116, HTRF pERK. In kind it is cell-based. The essentials:
(§2)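 6,000 cells/well; cpd 10 uM top, 3-fold x10, 0.8% DMSO final; 3 hr incubation; Min ctrl Trametinib 0.2 uM; lysis 40 min 4° C shaking; d2 + Cryptate Ab mix, 2 hr RT; HTRF read.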
A general note: Time-resolved FRET reads energy transfer from a long-lived donor to a nearby acceptor.

The next assay has as its target T1, KRas^G12R (Homo sapiens, UniProt P01116, G12R).
T1 construct: Biotinylated KRas (corresponding to amino acids 1-169, produced at Accelegan Inc.); biotin (biotinylated); purchased Accelegan Inc
Kind of assay: KRas binding assay (TR-FRET tracer displacement), KRas G12R.

Assay [3] concerns KRas-mediated phosphorylation of ERK in H727 cells. Kind of assay: Inhibition of KRas-mediated phosphorylation of ERK (Cisbio HTRF pERK), H727 cells. In kind it is cell-based. Conditions: Homo sapiens, NCI-H727, H727 cells; HTRF pERK. The essentials:
as §1

In assay [4] the test system is KRas-mediated phosphorylation of ERK in H460 cells. The assay is described as follows: Inhibition of KRas-mediated phosphorylation of ERK (Cisbio HTRF pERK), H460 cells. In kind it is cell-based. The following applies: Homo sapiens; for inhibition at 0.1 µM: NCI-H460, 3 h, single point, 100 nM compound, 3 hrs; for IC50: NCI-H460, HTRF pERK. In outline: as §1
The subject of assay [5] is KRas-mediated phosphorylation of ERK in PSN1 cells. Kind of assay: Inhibition of KRas-mediated phosphorylation of ERK (Cisbio HTRF pERK), PSN1 cells. In kind it is cell-based. Conditions: Homo sapiens. The essentials:
(§3)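 Day 1 seeding: 6,000 cells per well, RPMI/10% FBS, left overnight at 37° C. with 5% CO2. Plates then stood covered for 4 h at room temperature prior to HTRF detection of pERK.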

In a further assay the target is T2, KRas^G12D (Homo sapiens, UniProt P01116, G12D).
T2 construct: Biotinylated KRas (corresponding to amino acids 1-169, produced at Accelegan Inc.); biotin (biotinylated); purchased Accelegan Inc
The assay is described as follows: KRas binding assay (TR-FRET tracer displacement), KRas G12D.

The subject of assay [6] is KRas-mediated phosphorylation of ERK in MKN1 cells. Kind of assay: Inhibition of KRas-mediated phosphorylation of ERK (Cisbio HTRF pERK), MKN1 cells. In kind it is cell-based. Conditions: Homo sapiens, MKN-1. The essentials: as §3
In the next assay the target is T3, KRas^G12V (Homo sapiens, UniProt P01116, G12V).
T3 construct: Biotinylated KRas (corresponding to amino acids 1-169, produced at Accelegan Inc.); biotin (biotinylated); purchased Accelegan Inc
Kind of assay: KRas binding assay (TR-FRET tracer displacement), KRas G12V.

The test system of assay [7] is KRas-mediated phosphorylation of ERK in A549 cells. The assay is described as follows: Inhibition of KRas-mediated phosphorylation of ERK (Cisbio HTRF pERK), A549 cells. In kind it is cell-based. The following applies: Homo sapiens, HTRF pERK. In outline:
as §2

Molecules are shown by their SMILES.

T3 sequence (P01116 1-169 isoform P01116-2 G12V): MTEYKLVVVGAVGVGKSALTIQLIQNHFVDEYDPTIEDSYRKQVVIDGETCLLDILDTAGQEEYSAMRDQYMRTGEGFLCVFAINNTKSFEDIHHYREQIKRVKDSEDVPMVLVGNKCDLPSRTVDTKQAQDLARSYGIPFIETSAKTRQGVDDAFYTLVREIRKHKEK
T2 sequence (P01116 1-169 isoform P01116-2 G12D): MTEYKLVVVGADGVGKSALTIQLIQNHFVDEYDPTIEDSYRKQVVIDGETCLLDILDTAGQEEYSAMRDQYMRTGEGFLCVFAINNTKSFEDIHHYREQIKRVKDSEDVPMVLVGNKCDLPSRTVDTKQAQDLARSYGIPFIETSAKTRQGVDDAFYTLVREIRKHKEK
T1 sequence (P01116 1-169 isoform P01116-2 G12R): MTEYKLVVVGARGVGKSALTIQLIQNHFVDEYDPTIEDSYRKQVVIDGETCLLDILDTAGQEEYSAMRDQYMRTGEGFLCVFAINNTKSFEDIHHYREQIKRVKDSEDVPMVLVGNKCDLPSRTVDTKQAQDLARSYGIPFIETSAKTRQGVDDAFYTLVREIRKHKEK

In the case of `CCc1c(F)ccc2c(Br)c(O)cc(-c3ncc4c(N5C[C@@H]6C[C@H](C5)[C@H](O)C6)nc(OC[C@@]56CCCN5C[C@H](F)C6)nc4c3F)c12` [Example 537, (1R,5R,6R)-3-(7-(4-bromo-8-ethyl-7-fluoro-3-hydroxynaphthalen-1-yl)-8-fluoro-2-(((2R,7aS)-2-fluorohexahydro-1H-pyrrolizin-7a-yl)methoxy)pyrido[4,3-d]pyrimidin-4-yl)-3-azabicyclo[3.2.1]octan-6-ol], the IC50 – broadly, the midpoint of a concentration-inhibition curve – was 2020 nM in [1]; 263 nM on KRas^G12R; 1180 nM in assay [3]; greater than 10000 nM in assay [5]; 407 nM on KRas^G12D; 1480 nM in assay [6]. The molecule also gave a half-maximal inhibitory concentration (IC50) on KRas^G12V of 244 nM. For the same molecule, the inhibition (commonly the change of the read-out against control, counted positive when it falls) at 0.1 µM was 2% in [2] and 29% in assay [4].

Turning to `CCc1c(F)ccc2cc(O)cc(-c3ncc4c(/C=C/c5ccnn5C)nc(OC[C@@]56CCCN5C[C@H](F)C6)nc4c3F)c12` [Example 543, 5-ethyl-6-fluoro-4-(8-fluoro-2-(((2R,7aS)-2-fluorotetrahydro-1H-pyrrolizin-7a(5H)-yl)methoxy)-4-((E)-2-(1-methyl-1H-pyrazol-5-yl)vinyl)pyrido[4,3-d]pyrimidin-7-yl)naphthalen-2-ol], the IC50 in assay [1] is greater than 10000 nM; on KRas^G12R, 354 nM; in assay [3], 1610 nM; in assay [5], greater than 10000 nM; at KRas^G12D, 1690 nM; in assay [6], 5950 nM. The molecule also displayed a concentration for half-maximal inhibition (IC50) on KRas^G12V of 152 nM. Also, the inhibition at 0.1 µM in [2] was 5%; in assay [4], -1%.

In the case of `CCc1c(F)ccc2cc(O)cc(-c3ncc4c(N5C[C@H](F)C[C@@H](OC)C5)nc(OC[C@@]56CCCN5C[C@H](F)C6)nc4c3F)c12` [Example 557, 5-ethyl-6-fluoro-4-(8-fluoro-4-((3R,5R)-3-fluoro-5-methoxypiperidin-1-yl)-2-(((2R,7aS)-2-fluorohexahydro-1H-pyrrolizin-7a-yl)methoxy)pyrido[4,3-d]pyrimidin-7-yl)naphthalen-2-ol], the IC50 in assay [1] amounted to 617 nM; in [2] it was 517 nM; on KRas^G12R, 4 nM; in assay [7], 174 nM; in assay [3], 216 nM; in assay [4], 165 nM. Further, the IC50 in assay [5] is greater than 10000 nM; on KRas^G12D it was 12 nM; in assay [6], 22 nM; on KRas^G12V it was 6 nM.

As to `CCc1c(F)ccc2cc(O)cc(-c3ncc4c(N5CCCC(O)(C(N)=O)C5)nc(OC[C@@]56CCCN5C[C@H](F)C6)nc4c3F)c12` (stereo partly drawn) [Example 574, 1-(7-(8-ethyl-7-fluoro-3-hydroxynaphthalen-1-yl)-8-fluoro-2-(((2R,7aS)-2-fluorohexahydro-1H-pyrrolizin-7a-yl)methoxy)pyrido[4,3-d]pyrimidin-4-yl)-3-hydroxypiperidine-3-carboxamide], the IC50 in assay [1] was 3420 nM; on KRas^G12R, 7 nM; in [3], 1130 nM; in assay [5] it was greater than 10000 nM; at KRas^G12D, 7 nM; in [6], 78 nM. The molecule also showed an IC50 at KRas^G12V of 5 nM. Moreover, the inhibition at 0.1 µM stood at 18% in assay [2] and 19% in [4].

For the molecule `CCc1c(F)ccc2cc(O)cc(-c3ncc4c(N5CCCc6ncccc6C5)nc(OC[C@@]56CCCN5C[C@H](F)C6)nc4c3F)c12` [Example 579, 5-ethyl-6-fluoro-4-(8-fluoro-2-(((2R,7aS)-2-fluorotetrahydro-1H-pyrrolizin-7a(5H)-yl)methoxy)-4-(5,7,8,9-tetrahydro-6H-pyrido[3,2-c]azepin-6-yl)pyrido[4,3-d]pyrimidin-7-yl)naphthalen-2-ol], the IC50 in assay [1] was determined as 155 nM; in assay [2], 1780 nM; on KRas^G12R, 3 nM; in assay [7], 357 nM; in assay [3], 369 nM; in [4], 481 nM. Further, the IC50 in assay [5] is greater than 10000 nM; on KRas^G12D, 5 nM; in assay [6], 37 nM; at KRas^G12V, 6 nM.

Consider `CCc1c(F)ccc2cc(O)cc(-c3ncc4c(N5CCC(C)C(F)(F)CC5)nc(OC[C@@]56CCCN5C[C@H](F)C6)nc4c3F)c12` (stereo partly drawn) [Example 581, 4-(4-(4,4-difluoro-5-methylazepan-1-yl)-8-fluoro-2-(((2R,7aS)-2-fluorotetrahydro-1H-pyrrolizin-7a(5H)-yl)methoxy)pyrido[4,3-d]pyrimidin-7-yl)-5-ethyl-6-fluoronaphthalen-2-ol], for which the IC50 in assay [1] is 1370 nM; on KRas^G12R it was 41 nM; in assay [3], 1170 nM; in assay [5], greater than 10000 nM; at KRas^G12D, 160 nM; in assay [6] it was 527 nM. In addition, the IC50 at KRas^G12V amounted to 39 nM. Further, the inhibition at 0.1 µM in assay [2] is 21%; in assay [4], -24%.

Take `CCc1c(F)ccc2cc(O)cc(-c3ncc4c(N5CCC(Cn6cccn6)C5)nc(OC[C@@]56CCCN5C[C@H](F)C6)nc4c3F)c12` (stereo partly drawn) [Example 587, 4-(4-(3-((1H-pyrazol-1-yl)methyl)pyrrolidin-1-yl)-8-fluoro-2-(((2R,7aS)-2-fluorotetrahydro-1H-pyrrolizin-7a(5H)-yl)methoxy)pyrido[4,3-d]pyrimidin-7-yl)-5-ethyl-6-fluoronaphthalen-2-ol]: the IC50 in [1] was 2070 nM; at KRas^G12R, 74 nM; in assay [3], 3090 nM; in assay [5], greater than 10000 nM; on KRas^G12D, 323 nM; in assay [6], 926 nM. This molecule showed an IC50 at KRas^G12V of 64 nM. The inhibition at 0.1 µM in assay [2] was -12%; in [4] it was 6%.

With `CCc1c(F)ccc2cc(O)cc(-c3ncc4c(N5CCCC(C6(O)CCC6)C5)nc(OC[C@@]56CCCN5C[C@H](F)C6)nc4c3F)c12` (stereo partly drawn) [Example 593, 5-ethyl-6-fluoro-4-(8-fluoro-2-(((2R,7aS)-2-fluorotetrahydro-1H-pyrrolizin-7a(5H)-yl)methoxy)-4-(3-(1-hydroxycyclobutyl)piperidin-1-yl)pyrido[4,3-d]pyrimidin-7-yl)naphthalen-2-ol], the IC50 in assay [1] was 1230 nM; on KRas^G12R it was 7 nM; in [3], 391 nM; in assay [5], greater than 10000 nM; at KRas^G12D, 72 nM; in assay [6], 293 nM. Besides, the IC50 on KRas^G12V was determined as 10 nM. Also, the results for the inhibition at 0.1 µM in assay [2] and in assay [4] were -4% and 0%, respectively.

Consider `CCc1c(F)ccc2cc(O)cc(-c3ncc4c(N5CCCC6(CNS(=O)(=O)C6)C5)nc(OC[C@@]56CCCN5C[C@H](F)C6)nc4c3F)c12` (stereo partly drawn) [Example 644, 7-(7-(8-ethyl-7-fluoro-3-hydroxynaphthalen-1-yl)-8-fluoro-2-(((2R,7aS)-2-fluorohexahydro-1H-pyrrolizin-7a-yl)methoxy)pyrido[4,3-d]pyrimidin-4-yl)-2-thia-3,7-diazaspiro[4.5]decane 2,2-dioxide], for which the IC50 was 147 nM in assay [1]; 411 nM in assay [2]; less than 2 nM at KRas^G12R; 299 nM in [7]; 340 nM in [3]; 160 nM in [4]. Further, the IC50 in assay [5] was 2620 nM; on KRas^G12D, 3 nM; in assay [6], 10 nM; on KRas^G12V, less than 2 nM.

With `CCc1c(F)ccc2cc(O)cc(-c3ncc4c(N5CCC[C@@](C)(O)C5)nc(OCC5(CNC)CC5)nc4c3F)c12` [Example 696, (R)-1-(7-(8-ethyl-7-fluoro-3-hydroxynaphthalen-1-yl)-8-fluoro-2-((1-((methylamino)methyl)cyclopropyl)methoxy)pyrido[4,3-d]pyrimidin-4-yl)-3-methylpiperidin-3-ol], the IC50 in assay [1] was 690 nM; at KRas^G12R, 3 nM; in assay [3] it was 948 nM; in [5], greater than 10000 nM; at KRas^G12D it was less than 2 nM; in assay [6], 123 nM. On KRas^G12V, this molecule showed an IC50 of less than 2 nM. For the same molecule, the inhibition at 0.1 µM in assay [2] is 5%; in [4], 21%.
